According to US20230203043A1, “NOVEL IMIDAZOPYRAZINE DERIVATIVES” (Hoffmann-La Roche Inc., priority 2020, published 2023):
Where a name gives a salt, the structure may show the parent alone.

System: Acinetobacter baumannii ATCC17961
Assay: Antimicrobial susceptibility testing: 90% growth inhibitory concentration (IC90) determination in Iso-Sensitest broth, OD600 growth
Type: cell-based
Conditions: Acinetobacter baumannii, ATCC17961, 16 h, read-out: A. baumannii ATCC 17961 IC90 (uM), strain ATCC 17961, OD600 growth over 16 h
Method in brief: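 Twofold compound dilutions (e.g. 50 to 0.097 μM final) in Iso-Sensitest broth with ~5×10^(5) CFU/ml, 35±2 °C. OD600 read every 20 min over 16 h; IC90 from growth inhibition during logarithmic phase.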

SMILES | IC90
CCc1cc(Nc2nccn3c(-c4cn(CC#N)nc4C(F)(F)F)cnc23)ccc1C(=O)NCCCNC(=O)[C@@H]1CC[C@H](N)C1 [Example 483, N-(3-((1R,3S)-3-(l2-azaneyl)cyclopentane-1-carboxamido)propyl)-4-((3-(1-(cyanomethyl)-3-(trifluoromethyl)-1H-pyrazol-4-yl)imidazo[1,2-a]pyrazin-8-yl)amino)-2-ethylbenzamide formate] | 0.194 µM
O=C(NCC1(O)CNC1)N1CCN(C(=O)c2ccc(Nc3nccn4c(-c5cn(CC(F)F)nc5C(F)(F)F)cnc34)cc2Cl)CC1 [Example 580, 4-(2-chloro-4-((3-(1-(2,2-difluoroethyl)-3-(trifluoromethyl)-1H-pyrazol-4-yl)imidazo[1,2-a]pyrazin-8-yl)amino)benzoyl)-N-((3-hydroxyazetidin-3-yl)methyl)piperazine-1-carboxamide formate] | 0.322 µM
O=C(c1ccc(Nc2nccn3c(-c4c[nH]nc4C(F)(F)F)cnc23)cc1Cl)N1CCN(C(=O)[C@H]2CCNC[C@H]2O)CC1 [Example 451, [2-chloro-4-[[3-[3-(trifluoromethyl)-1H-pyrazol-4-yl]imidazo[1,2-a]pyrazin-8-yl]amino]phenyl]-[4-[(3S,4S)-3-hydroxypiperidine-4-carbonyl]piperazin-1-yl]methanone formate] | 0.365 µM
O=C(c1ccc(Nc2nccn3c(-c4c[nH]nc4C(F)(F)F)cnc23)cc1Cl)N1CCN(C(=O)[C@@H]2CCNC[C@H]2O)CC1 [Example 454, [2-chloro-4-[[3-[3-(trifluoromethyl)-1H-pyrazol-4-yl]imidazo[1,2-a]pyrazin-8-yl]amino]phenyl]-[4-[(3S,4R)-3-hydroxypiperidine-4-carbonyl]piperazin-1-yl]methanone formate] | 0.778 µM
CCc1cc(Nc2nccn3c(-c4cn(C5CCC5)nc4C(F)(F)F)cnc23)ccc1C(=O)NCC1CC1N (stereo not shown) [Example 671, N-((2-aminocyclopropyl)methyl)-4-((3-(1-cyclobutyl-3-(trifluoromethyl)-1H-pyrazol-4-yl)imidazo[1,2-a]pyrazin-8-yl)amino)-2-ethylbenzamide formate] | 0.309 µM
CCc1cc(Nc2nccn3c(-c4cn(CC(C)(C)CO)nc4C(F)(F)F)cnc23)ccc1C(=O)NCCOCCN [Example 306, N-[2-(2-aminoethoxy)ethyl]-2-ethyl-4-[[3-[1-(3-hydroxy-2,2-dimethylpropyl)-3-(trifluoromethyl)pyrazol-4-yl]imidazo[1,2-a]pyrazin-8-yl]amino]benzamide formate] | 0.483 µM
CCc1cc(Nc2nccn3c(-c4cn(C(CO)CCl)nc4C(F)(F)F)cnc23)ccc1C(=O)NCCOCCN (stereo not shown) [Example 278, N-[2-(2-aminoethoxy)ethyl]-4-[[3-[1-(1-chloro-3-hydroxypropan-2-yl)-3-(trifluoromethyl)pyrazol-4-yl]imidazo[1,2-a]pyrazin-8-yl]amino]-2-ethylbenzamide formate] | 0.332 µM
C[C@@H](NC(=O)c1ccc(Nc2nccn3c(-c4c[nH]nc4C(F)(F)F)cnc23)cc1Cl)C(=O)NC1CC(N)C1 (stereo partly drawn) [Example 92, N-[(2R)-1-[(3-aminocyclobutyl)amino]-1-oxopropan-2-yl]-2-chloro-4-[[3-[3-(trifluoromethyl)-1H-pyrazol-4-yl]imidazo[1,2-a]pyrazin-8-yl]amino]benzamide formate] | 0.947 µM
N#CCCn1cc(-c2cnc3c(Nc4ccc(C(=O)N5CCN(C(=O)N[C@H]6CCNC6)CC5)c(Cl)c4)nccn23)c(C(F)(F)F)n1 [Example 259, 4-[2-chloro-4-[[3-[1-(2-cyanoethyl)-3-(trifluoromethyl)pyrazol-4-yl]imidazo[1,2-a]pyrazin-8-yl]amino]benzoyl]-N-[(3S)-pyrrolidin-3-yl]piperazine-1-carboxamide formate] | 0.463 µM
CCc1cc(Nc2nccn3c(-c4c[nH]nc4C(F)(F)F)cnc23)ccc1C(=O)NCCCNC(=O)[C@@H](N)CCCCN [Example 195, N-[3-[[(2S)-2,6-diaminohexanoyl]amino]propyl]-2-ethyl-4-[[3-[3-(trifluoromethyl)-1H-pyrazol-4-yl]imidazo[1,2-a]pyrazin-8-yl]amino]benzamide formate] | 0.331 µM
N#CCCn1cc(-c2cnc3c(Nc4ccc(C(=O)N5CCN(C(=O)CCN)CC5)c(Cl)c4)nccn23)c(C(F)(F)F)n1 [Example 256, 3-[4-[8-[4-[4-(3-aminopropanoyl)piperazine-1-carbonyl]-3-chloroanilino]imidazo[1,2-a]pyrazin-3-yl]-3-(trifluoromethyl)pyrazol-1-yl]propanenitrile formate] | 0.358 µM

Same assay, conditions: Acinetobacter baumannii, ATCC17961, 16 h, strain ATCC 17961, OD600 growth over 16 h, read-out: A. baumannii ATCC 17961 IC90

SMILES | IC90
CCc1cc(Nc2nccn3c(-c4cn(COC)nc4C(F)F)cnc23)ccc1C(=O)N1CCN(C(=O)C2CC(O)CN2)CC1 (stereo not shown) [Example 798, (4-(4-((3-(3-(difluoromethyl)-1-(methoxymethyl)-1H-pyrazol-4-yl)imidazo[1,2-a]pyrazin-8-yl)amino)-2-ethylbenzoyl)piperazin-1-yl)(4-hydroxypyrrolidin-2-yl)methanone] | 2.36 µM
Cc1cc(Nc2nccn3c(-c4cn(CC(F)F)nc4C(F)(F)F)cnc23)cc(F)c1C(=O)N1CCN(C(=O)CN)CC1 [Example 650, 2-amino-1-(4-(4-((3-(1-(2,2-difluoroethyl)-3-(trifluoromethyl)-1H-pyrazol-4-yl)imidazo[1,2-a]pyrazin-8-yl)amino)-2-fluoro-6-methylbenzoyl)piperazin-1-yl)ethan-1-one] | 0.252 µM
N[C@H]1CCN(C(=O)c2ccc(Nc3nccn4c(-c5c[nH]nc5C(F)(F)F)cnc34)cc2Cl)C1 [Example 320, [(3S)-3-aminopyrrolidin-1-yl]-[2-chloro-4-[[3-[3-(trifluoromethyl)-1H-pyrazol-4-yl]imidazo[1,2-a]pyrazin-8-yl]amino]phenyl]methanone] | 0.705 µM
CCc1cc(Nc2nccn3c(-c4cn(CC(N)=O)nc4C(F)(F)F)cnc23)ccc1C(=O)NC [Example 339, 4-[[3-[1-(2-amino-2-oxoethyl)-3-(trifluoromethyl)pyrazol-4-yl]imidazo[1,2-a]pyrazin-8-yl]amino]-2-ethyl-N-methylbenzamide] | 2.49 µM
C[C@@H](N)C(=O)N1CCN(C(=O)c2ccc(Nc3nccn4c(-c5cn(CC#N)nc5C(F)(F)F)cnc34)cc2Cl)CC1 [Example 188, 2-[4-[8-[4-[4-[(2R)-2-aminopropanoyl]piperazine-1-carbonyl]-3-chloroanilino]imidazo[1,2-a]pyrazin-3-yl]-3-(trifluoromethyl)pyrazol-1-yl]acetonitrile] | 0.197 µM
N#CCn1cc(-c2cnc3c(Nc4ccc(C(=O)N5CC(NC(=O)C6CCNCC6)C5)c(Cl)c4)nccn23)c(C(F)(F)F)n1 [Example 170, N-[1-[2-chloro-4-[[3-[1-(cyanomethyl)-3-(trifluoromethyl)pyrazol-4-yl]imidazo[1,2-a]pyrazin-8-yl]amino]benzoyl]azetidin-3-yl]piperidine-4-carboxamide] | 0.475 µM
CCc1cc(Nc2nccn3c(-c4cn(CC#N)nc4C(F)(F)F)cnc23)ccc1C(=O)NCCNC(=O)[C@H]1CC[C@@H](N)C1 [Example 496, N-(2-((1S,3R)-3-aminocyclopentane-1-carboxamido)ethyl)-4-((3-(1-(cyanomethyl)-3-(trifluoromethyl)-1H-pyrazol-4-yl)imidazo[1,2-a]pyrazin-8-yl)amino)-2-ethylbenzamide formate] | 0.173 µM
Cc1cc(Nc2nccn3c(-c4cn(CC(F)F)nc4C(F)(F)F)cnc23)ccc1C(=O)NCCOCCN [Example 254, N-[2-(2-aminoethoxy)ethyl]-4-[[3-[1-(2,2-difluoroethyl)-3-(trifluoromethyl)pyrazol-4-yl]imidazo[1,2-a]pyrazin-8-yl]amino]-2-methylbenzamide] | 0.222 µM
CCc1cc(Nc2nccn3c(-c4cn(CC(O)CC)nc4C(F)(F)F)cnc23)ccc1C(=O)NCCOCCN (stereo not shown) [Example 268, N-[2-(2-aminoethoxy)ethyl]-2-ethyl-4-[[3-[1-(2-hydroxybutyl)-3-(trifluoromethyl)pyrazol-4-yl]imidazo[1,2-a]pyrazin-8-yl]amino]benzamide] | 0.346 µM
NCC(=O)N1CCN(C(=O)c2ccc(Nc3nccn4c(-c5c[nH]nc5C(F)(F)F)cnc34)cc2Cl)CC1 [Example 131, 2-amino-1-[4-[2-chloro-4-[[3-[3-(trifluoromethyl)-1H-pyrazol-4-yl]imidazo[1,2-a]pyrazin-8-yl]amino]benzoyl]piperazin-1-yl]ethanone] | 0.117 µM
O=C(NC1CCC(NC(=O)[C@@H]2C[C@@H](O)CN2)CC1)c1ccc(Nc2nccn3c(-c4c[nH]nc4C(F)(F)F)cnc23)cc1Cl (stereo partly drawn) [Example 374, (2S,4R)-N-[4-[[2-chloro-4-[[3-[3-(trifluoromethyl)-1H-pyrazol-4-yl]imidazo[1,2-a]pyrazin-8-yl]amino]benzoyl]amino]cyclohexyl]-4-hydroxypyrrolidine-2-carboxamide] | 0.237 µM

Same assay, conditions: strain ATCC 17961, OD600 growth over 16 h, read-out: A. baumannii ATCC 17961 IC90

SMILES | IC90
C=CCn1cc(-c2cnc3c(Nc4ccc(C(=O)N[C@H](C)CNC(=O)OC(C)(C)C)c(CC)c4)nccn23)c(C(F)(F)F)n1 [Example 129, tert-butyl N-[(2R)-2-[[2-ethyl-4-[[3-[1-prop-2-enyl-3-(trifluoromethyl)pyrazol-4-yl]imidazo[1,2-a]pyrazin-8-yl]amino]benzoyl]amino]propyl] carbamate] | 1.06 µM
COCCNC(=O)c1ccc(Nc2nccn3c(-c4cn(CC#N)nc4C(F)(F)F)cnc23)cc1Cl [Example 239, 2-chloro-4-[[3-[1-(cyanomethyl)-3-(trifluoromethyl)pyrazol-4-yl]imidazo[1,2-a]pyrazin-8-yl]amino]-N-(2-methoxyethyl) benzamide] | 0.211 µM
CCc1cc(Nc2nccn3c(-c4cn(CCC(F)(F)F)nc4C(F)(F)F)cnc23)ccc1C(=O)NCCOCCN [Example 32, N-[2-(2-aminoethoxy)ethyl]-2-ethyl-4-[[3-[3-(trifluoromethyl)-1-(3,3,3-(trifluoropropyl)pyrazol-4-yl]imidazo[1,2-a]pyrazin-8-yl]amino]benzamide formate] | 0.19 µM
